Several values for one entry are separate records, joined by “and”; a condition that tells them apart may be missing. Identical values can stand only once. Numbers after ± are expanded uncertainties.
Conditions: Liquid, Closed cell (Static) method

vapor or sublimation pressure (283.15 K)	vapor or sublimation pressure (293.15 K)	vapor or sublimation pressure (303.15 K) [kPa]	vapor or sublimation pressure (313.15 K) [kPa]	SMILES
638 ± 3 kPa	840 ± 3 kPa	1083 ± 3	1375 ± 4	CCC [propane]
148 ± 2 kPa	208 ± 2 kPa	282 ± 2	378 ± 2	CCCC [butane]
3246 ± 9 kPa and 3242 ± 9 kPa	4158 ± 10 kPa and 4162 ± 10 kPa	–	–	FC(F)F [trifluoromethane]

Reference: the NIST ThermoML archive (doi:10.1016/j.jct.2009.06.009)
